Experiment [1] has as its system strain IMB-1. As to the kind of experiment: 14C-MeBr oxidation assay on washed cell suspensions. Format: cell-based, strain IMB-1 (ATCC 202197). The conditions noted are these: for rate of MeBr oxidation, normalized for cell densities: cells grown on methylamine; for MeBr oxidized: cells grown on the substrate indicated.
The subject of experiment [2] is strain IMB-1. As to the kind of experiment: Growth of strain IMB-1 on substrates in mineral salts medium (Balch tubes).
Setting [3] is: substrate as electron donor / carbon and energy source.

Each structure is given as a SMILES string. Like-named read-outs stand apart in the source and are kept apart here.

Turning to `CI` [methyl iodide], the “rate of MeBr oxidation, normalized for cell densities” value is on record as 1.4 pmol/10^6 cells/h in the experiment with strain IMB-1 [1] (cultures incubated with 2 μmoles Mel), 1.1 pmol/10^6 cells/h with strain IMB-1 [1] (cultures incubated with 5 μmoles Mel), 1.1 pmol/10^6 cells/h with strain IMB-1 [1] (cultures incubated with 8 μmoles Mel) and 1.4 pmol/10^6 cells/h in the experiment with strain IMB-1 [1] (cultures incubated with 10 μmoles Mel). Moreover, the MeBr oxidized in the experiment with strain IMB-1 [1] is recorded as 2.4 pmol/10^6 cells/h. Further, the “growth of strain IMB-1 on the substrate (in words)” value (from here on “growth … (in words)”) with strain IMB-1 [2] (setting [3]) is recorded as “Growth was also obtained”.

For the molecule `CF` [methyl fluoride], the MeBr oxidized in the experiment with strain IMB-1 [1] was 0.0 pmol/10^6 cells/h. The “metabolized by strain IMB-1” value in the experiment with strain IMB-1 [2] is on record as “not metabolized”. Besides, the “effect on uptake of MeBr or growth of IMB-1 on MeBr” value in the experiment on strain IMB-1 [2] (2-22 μmol/tube added) is given as “did not affect”. Moreover, the “growth … (in words)” value in the experiment with strain IMB-1 [2] (setting [3]) is on record as “no growth occurred”.

As to `O=CO` [formate], in the experiment with strain IMB-1 [2], the “growth … (in words)” value is recorded as “no growth occurred”.

Consider `CN(C)C` [trimethylamine], for which the “growth … (in words)” value with strain IMB-1 [2] (setting [3]) is reported as “support growth”.

With `CO` [methanol], in the experiment on strain IMB-1 [2] (setting [3]), the “growth … (in words)” value is given as “no growth occurred”.

With `CC(=O)O` [acetate], in the experiment on strain IMB-1 [2], the “growth … (in words)” value is recorded as “grows”.

For the molecule `CN` [monomethylamine], the “growth … (in words)” value in the experiment with strain IMB-1 [2] (setting [3]) is reported as “support growth”.

Regarding `O=C(O)CC(O)C(=O)O` (stereo not drawn) [malate], the “growth … (in words)” value in the experiment with strain IMB-1 [2] (setting [3]) is “weak growth”.

For the molecule `C` [methane], the “growth … (in words)” value with strain IMB-1 [2] (setting [3]) is reported as “no growth occurred”.

`O=C(O)CCC(=O)O` [succinate]: in the experiment with strain IMB-1 [2] (setting [3]), the “growth … (in words)” value is recorded as “no growth occurred”.

Take `O=C(O)/C=C/C(=O)O` [fumarate]: the “growth … (in words)” value in the experiment with strain IMB-1 [2] (setting [3]) is listed as “no growth occurred”.

As to `CNC` [dimethylamine], the “growth … (in words)” value in the experiment on strain IMB-1 [2] is listed as “support growth”.

Consider `O=C(O)CC(O)(CC(=O)O)C(=O)O` [citrate], for which, in the experiment on strain IMB-1 [2] (setting [3]), the “growth … (in words)” value is “no growth occurred”.

The values above are taken from US6916446B1, “Bioreactor method, apparatus and product thereby” (The United States of America as represented by the …, priority 2002, dated 2005).
